Assay results taken from paper PMC5107945, “Abscinazole-E3M, a practical inhibitor of abscisic acid 8′-hydroxylase for improving drought tolerance” (Scientific Reports, 2016).
pIC50, pKi: −log10 of the molar value. Like-named read-outs stand apart in the source and are kept apart here.

Columns and labels:
[1] = biological target: T1, Arabidopsis recombinant CYP707A3 (ABA 8′-hydroxylase) (Arabidopsis thaliana, UniProt Q9FH76); test: CYP707A3 inhibition assay (decrease of enzymatic product PA); assay type: biochemical; details: Arabidopsis recombinant CYP707A3 expressed in E. coli; for pIC50: 5 μM ABA as substrate, read-out: CYP707A IC50
T1 construct: made in house; host or cells: Escherichia coli (microsomal/membrane fraction)
T1 sequence (Q9FH76 1-463): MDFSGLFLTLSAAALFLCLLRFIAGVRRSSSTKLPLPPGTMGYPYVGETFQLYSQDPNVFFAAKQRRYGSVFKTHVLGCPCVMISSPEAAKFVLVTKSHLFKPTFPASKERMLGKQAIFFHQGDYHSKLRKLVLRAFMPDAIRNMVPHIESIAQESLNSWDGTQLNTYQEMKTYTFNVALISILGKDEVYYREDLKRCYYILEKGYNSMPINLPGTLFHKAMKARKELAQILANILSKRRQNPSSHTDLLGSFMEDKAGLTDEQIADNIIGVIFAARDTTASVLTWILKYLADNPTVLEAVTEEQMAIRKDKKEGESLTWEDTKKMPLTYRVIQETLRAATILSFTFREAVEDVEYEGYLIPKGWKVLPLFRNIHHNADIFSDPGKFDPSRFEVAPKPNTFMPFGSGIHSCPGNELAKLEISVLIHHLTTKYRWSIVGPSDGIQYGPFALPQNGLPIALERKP
Experimental: The inhibitory activities of Abz-T compounds against ABA 8′-hydroxylase were examined using recombinant Arabidopsis CYP707A3 co-expressed with Arabidopsis P-450 reductase (ATR1) in Escherichia coli[22]. The activity levels were evaluated based on the decrease in the amount of the enzymatic product, PA.
Reactions were initiated by adding NADPH, stopped by the addition of 25 μL of 1 M NaOH and then acidified with 50 μL of 1 M HCl. Reaction products were extracted by loading the mixture onto an Oasis HLB cartridge (1 mL, 30 mg; Waters Corp., Milford, MA, USA) and were washed with 1 mL of 10% MeOH in H2O (v/v) containing 1% acetic acid (AcOH, v/v). The enzyme products were then eluted with 1 mL of MeOH containing 1% AcOH, and the eluate was concentrated in vacuo. Each dried sample was then dissolved in 50 μL of MeOH, and a 20-μL volume was subjected to HPLC (Prominence; Shimadzu Corp., Kyoto, Japan). HPLC conditions were as follows: the octadecylsilyl column was composed of Hydrosphere C18 (150 × 6.0 mm, YMC Co., Ltd., Kyoto, Japan), and the solvent comprised 17% acetonitrile (MeCN) in H2O containing 0.05% AcOH (v/v). The flow rate was 1.0 mL min^−1, and detection was at 254 nm. Enzyme activity was evaluated by determining the amount of PA in control experiments prior to taking each set of measurements. The inhibition constants were determined using the Enzyme Kinetics module of the SigmaPlot 10 software (Systat Software, Inc., San Jose, CA, USA) after determining the inhibition mode by plotting the reaction velocity in the presence and absence of the inhibitor on a double-reciprocal plot. The inhibition ratio was defined as [(A − B)/A] × 100, where A = the amount of PA when the inhibitor was absent from the reaction mixture (control), and B = the amount of PA when the inhibitor was present. All of the tests were conducted at least three times.

[2] = biological target: T2, Rice recombinant CYP701A6 (ent-kaurene oxidase) (Oryza sativa subsp. japonica, UniProt Q5Z5R4); test: CYP701A6 inhibition assay (formation of end product KA); assay type: biochemical
T2 construct: made in house; host or cells: insect cells (baculovirus vector)
T2 sequence (Q5Z5R4 1-505): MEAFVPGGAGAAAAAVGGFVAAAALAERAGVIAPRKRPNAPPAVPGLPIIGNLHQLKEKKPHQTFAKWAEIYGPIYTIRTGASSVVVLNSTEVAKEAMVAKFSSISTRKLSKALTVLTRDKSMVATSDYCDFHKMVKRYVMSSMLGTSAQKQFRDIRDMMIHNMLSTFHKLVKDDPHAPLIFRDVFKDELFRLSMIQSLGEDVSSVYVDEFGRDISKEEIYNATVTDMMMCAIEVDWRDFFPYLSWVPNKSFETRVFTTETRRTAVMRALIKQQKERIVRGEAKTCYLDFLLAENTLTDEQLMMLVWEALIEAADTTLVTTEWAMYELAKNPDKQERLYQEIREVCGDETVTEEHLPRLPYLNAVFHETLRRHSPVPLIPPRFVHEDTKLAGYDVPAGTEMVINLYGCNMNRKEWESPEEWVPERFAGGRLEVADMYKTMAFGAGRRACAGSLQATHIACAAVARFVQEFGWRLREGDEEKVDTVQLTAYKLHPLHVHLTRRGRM
Experimental: To evaluate the enzymatic selectivity between CYP707A and CYP701A, we examined the inhibitory activity against recombinant rice containing CYP701A6 expressed in insect cells using a baculovirus vector. This enzyme catalyses all three steps to KA via the corresponding alcohol and aldehyde, and consequently, the kinetic analysis is very complicated. Therefore, we evaluate the IC50 value for the formation of the end product, KA, instead of the KI value.
Reaction mixtures, containing 0.058 μM of […] microsomes, ATR2 (0.115 U), ent-kaurene (final concentration of 10 μM), inhibitors (0 for control, 1.5–1,500 μM in 8 μL dimethylformamide), and 20 mM NADPH in 500 mM potassium phosphate buffer (pH 7.4), were incubated at 30 °C for 10 min. Reactions were initiated by adding NADPH and stopped by the addition of 100 μL of 1 M HCl. Abietic acid, as the internal standard, was then added to the reaction product, which was extracted with EtOAc (400 μL × 3). The organic phase was dried over Na2SO4 and concentrated in vacuo. To derivatize the reaction products, MeOH (50 μL) and trimethylsilyldiazomethane (2 M in 5 μL hexane) were added, and the reaction mixture was incubated at room temperature for 10 min. The organic solvent was removed under N2, and samples were adjusted to 150 μL with hexane before a gas chromatography-mass spectrometry analysis (QP2010-plus; Shimadzu Corp., Kyoto, Japan). The conditions were as follows: the column was DB-5ms (0.25 mm id × 15 m, 0.25 μm film thickness; Agilent J & W, Folsom, CA, USA), the carrier gas was He, the flow rate was 1.65 mL min^−1, the injection port temperature was 280 °C, splitless injection, and the programmed column temperature was a step gradient of 80 °C for 1 min, 80–200 °C at 18 °C min^−1, 200–210 °C at 2 °C min^−1, 210–280 °C at 30 °C min^−1, and then 280 °C for 3 min. The KA content was calculated from the area ratio of molecular and fragment ions of methyl KA (m/z 316, 273, and 257) to those of methyl abietate (m/z 316 and 256). The inhibition ratio was defined as [(A − B)/A] × 100, where A = the amount of methyl KA/methyl abietate when the inhibitor was absent from the reaction mixture (control), and B = the amount of methyl KA/methyl abietate when the inhibitor was present. All of the tests were conducted at least three times.

[3] = tested on: ABA-responsive genes MAPKKK18, RD29A and RD29B; test: qRT-PCR of ABA-responsive genes in Arabidopsis seedlings; assay type: in vivo, Arabidopsis (Columbia accession); details: 10-day-old seedlings, 6 h
Experimental: Figure 5 Effects of (−)-Abz-E3M on the expression levels of Arabidopsis ABA-responsive genes. Expression of MAPKKK18, RD29A and RD29B after treatment with (−)-Abz-E2B or (−)-Abz-E3M in the absence or presence of 0.25 μM ABA (n = 4, error bar represents s.d.).
Arabidopsis (Columbia accession) were grown for 10 d on agar plates containing 1/2 Murashige and Skoog (MS) and 0.5% sucrose at 22 °C under an 18/6-h light/dark cycle. Seedlings were incubated in the chemical solutions for 6 h. Total RNA from seedlings was isolated using the Plant RNA purification reagent (Thermo Fisher Scientific) according to the manufacturer’s instructions. cDNA was synthesised using the QuantiTec reverse transcription kit (Qiagen). Maize (cv. Gold rush, Sakata Seed Corporation) seedlings were grown in 100-mL pots containing 75 g of moist soil in a glass house. The root parts of the maize seedlings were washed with tap water and dipped in 100 μM (−)-Abz-E3M chemical solution containing 0.05% Tween-20 overnight. Total RNA from maize seedlings was isolated using an RNeasy mini kit (Qiagen) with the ‘on-column’ DNA digestion method. cDNA was synthesised using a High-Capacity cDNA Reverse Transcription Kit (Thermo Fisher Scientific). Real-time PCR using SYBR Premix Ex Taq™ II (Takara) was performed with Step One-Plus (Thermo Fisher Scientific). The primer sets are shown in Supplemental Table S1.

[4] = tested on: rice seedling growth; test: Rice seedling elongation assay; assay type: in vivo, Oryza sativa L. cv. Nipponbare; details: 0.3 μM; 7 d
Experimental: The effects of (−)-Abz-T compounds were also tested on the early growth of rice seedlings to investigate whether the plant growth-retardant effect derived from UNI declined. […] This was the same trend observed for (−)-Abz-E2B[26]. […] Thus, the growth-retardant effects of (−)-Abz-T compounds may arise from an increase in the endogenous ABA level due to the CYP707A inhibition, although we cannot exclude the possibility that Abz-T compounds may inhibit off-target enzymes other than CYP707A and CYP701A.
Figure 4 Effects of (−)-Abz-T compounds on rice seedling growth compared with the effects of UNI and (−)-Abz-E2B. Seedlings grown on test media containing indicated concentrations of azole inhibitors for 7 d. Scale bars represent 10 mm. Compound 6 is also referred to as Abz-E3M.
For the rice seedling elongation assay, seven seeds (Oryza sativa L. cv. Nipponbare) were sterilised with reagent-grade EtOH for 5 min and washed with running tap water. They were then soaked in distilled water and incubated under continuous illumination at 25 °C for 3 d to germinate. The germinated seeds were then soaked in 2 mL of a test medium in a glass tube and grown under continuous illumination at 25 °C. When the seedlings were 7 d old, the length of the second leaf sheath was measured. All of the assays were conducted at least three times.

[5] = Rice recombinant CYP701A6 expressed in insect cells, 10 μM ent-kaurene, formation of KA, read-out: CYP701A IC50

Compound	pIC50 [1]	pIC50 [2, 5]	Expression of ABA-responsive genes MAPKKK18, RD29A and RD29B ([3]; absence of exogenous ABA)	Expression of ABA-responsive genes MAPKKK18, RD29A and RD29B ([3]; co-treatment with 0.25 μM ABA)	pKi ([1]; ABA 1–64 μM, read-out: CYP707A KI)	Effect on elongation of rice seedlings [4]	pIC50 [2]
abscinazole-E2B [(+)-Abz-E2B, reference compound]	5.96	5.89	–	–	–	–	–
abscinazole-E2B [(−)-Abz-E2B, reference compound]	7.27	5.92	did not induce the expression	enhanced the expression levels of ABA-responsive genes	7.42	–	–
CC(C)(C)[C@H](O)/C(=C\c1ccc(Cl)cc1)n1cncn1 [UNI, S-uniconazole, reference compound]	–	–	–	–	–	strongly inhibited the elongation of rice seedlings	7.24
abscinazole-E3M [(+)-6]	5.92	5.80	–	–	–	–	–
